Source: PubChem BioAssay AID248 (DTP/NCI, 2004)
Toxic doses and inconclusive results are not listed.

Test system: L1210 leukemia ip in BDF1 mice, survival T/C
Experiment: NCI In Vivo Anticancer Drug Screen. Data for tumor model L1210 Leukemia (intraperitoneal) in B6D2F1 (BDF1) mice
Conditions: endpoint: mean survival time, higher = longer survival
Procedure, shortened: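 Ratio derived from survival: compound-dosed mice over vehicle-dosed mice, all bearing a transplantable tumor.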

[1] = dose: 100.0 mg/kg/injection, schedule: Q01DX001 (ip), vehicle: saline with Tween-80
[2] = dose: 200.0 mg/kg/injection, schedule: Q01DX001 (ip), vehicle: saline with Tween-80
[3] = dose: 400.0 mg/kg/injection, schedule: Q01DX001 (ip), vehicle: saline with Tween-80
[4] = dose: 100.0 mg/kg/injection, schedule: Q04DX003 (ip), vehicle: saline
[5] = dose: 200.0 mg/kg/injection, schedule: Q04DX003 (ip), vehicle: saline
[6] = dose: 100.0 mg/kg/injection, schedule: Q01DX001 (ip), vehicle: saline
[7] = dose: 200.0 mg/kg/injection, schedule: Q01DX001 (ip), vehicle: saline
[8] = dose: 400.0 mg/kg/injection, schedule: Q01DX001 (ip), vehicle: saline
[9] = dose: 100.0 mg/kg/injection, schedule: Q04DX003 (ip), vehicle: saline with Tween-80
[10] = dose: 200.0 mg/kg/injection, schedule: Q04DX003 (ip), vehicle: saline with Tween-80
[11] = dose: 25.0 mg/kg/injection, schedule: Q01DX009 (ip), vehicle: saline

## C[C-]=O.C[C-]=O.[Br][Pd][Br]
[1]
  T/C: 97 % of control
[2]
  T/C: 100 % of control
[3]
  T/C: 107 % of control

## Cc1ccc(/C=C/S(=O)(=O)c2ccccc2)cc1
dose: 100.0 mg/kg/injection, schedule: Q01DX001 (ip), vehicle: acetone
  T/C: 109 % of control
dose: 100.0 mg/kg/injection, schedule: Q01DX009 (ip), vehicle: acetone
  T/C: 87 % of control
dose: 100.0 mg/kg/injection, schedule: Q04DX003 (ip), vehicle: acetone
  T/C: 97 % of control
dose: 200.0 mg/kg/injection, schedule: Q01DX001 (ip), vehicle: acetone
  T/C: 98 % of control
dose: 200.0 mg/kg/injection, schedule: Q01DX009 (ip), vehicle: acetone
  T/C: 87 % of control
dose: 200.0 mg/kg/injection, schedule: Q04DX003 (ip), vehicle: acetone
  T/C: 103 % of control
dose: 400.0 mg/kg/injection, schedule: Q01DX001 (ip), vehicle: acetone
  T/C: 98 % of control
dose: 400.0 mg/kg/injection, schedule: Q01DX009 (ip), vehicle: acetone
  T/C: 88 % of control
dose: 400.0 mg/kg/injection, schedule: Q04DX003 (ip), vehicle: acetone
  T/C: 105 % of control

## Clc1ccc(CSc2ncc(Br)c(N3CC3)n2)c(Cl)c1
dose: 88.0 mg/kg/injection, schedule: Q01DX Z (ip), vehicle: methylcellulose (MC)
  T/C: 89 % of control
dose: 133.0 mg/kg/injection, schedule: Q01DX Z (ip), vehicle: methylcellulose (MC)
  T/C: 94 % of control

## BrC#CC1CCCCC1
[4]
  T/C: 100 % of control
[5]
  T/C: 100 % of control

## O=S(=O)(O)c1cccnc1
dose: 19.63 mg/kg/injection, schedule: Q01DX Z (ip), vehicle: carboxymethylcellulose (CMC)
  T/C: 102 % of control
dose: 39.25 mg/kg/injection, schedule: Q01DX Z (ip), vehicle: carboxymethylcellulose (CMC)
  T/C: 93 % of control
dose: 78.5 mg/kg/injection, schedule: Q01DX Z (ip), vehicle: carboxymethylcellulose (CMC)
  T/C: 92 % of control
[6]
  T/C: 102 % of control
dose: 157.0 mg/kg/injection, schedule: Q01DX Z (ip), vehicle: carboxymethylcellulose (CMC)
  T/C: 91 % of control
[7]
  T/C: 98 % of control
[8]
  T/C: 98 % of control

## COC1C(COS(=O)(=O)c2ccc(C)cc2)OC2OC(C)(C)OC21 (configuration not stated)
dose: 100.0 mg/kg/injection, schedule: Q04DX003 (ip), vehicle: other
  T/C: 92 % of control
dose: 200.0 mg/kg/injection, schedule: Q04DX003 (ip), vehicle: other
  T/C: 97 % of control
dose: 400.0 mg/kg/injection, schedule: Q04DX003 (ip), vehicle: other
  T/C: 101 % of control

## O=C1c2ccccc2C(=O)C1c1ccc2ccccc2n1
[9]
  T/C: 95 % of control
[10]
  T/C: 91 % of control
dose: 400.0 mg/kg/injection, schedule: Q04DX003 (ip), vehicle: saline with Tween-80
  T/C: 93 % of control

## O=C(CCCO)N/N=C\c1ccc([N+](=O)[O-])s1
[4]
  T/C: 95 % of control
[5]
  T/C: 93 % of control
dose: 400.0 mg/kg/injection, schedule: Q04DX003 (ip), vehicle: saline
  T/C: 101 % of control

## COc1ccc2oc(=O)[nH]c2c1
[1]
  T/C: 100 % of control
[2]
  T/C: 100 % of control
[3]
  T/C: 100 % of control

## CC1(C)N=C(N)N=C(N)N1c1ccc(OCCCNS(=O)(=O)c2ccc(S(=O)(=O)F)cc2)c(Cl)c1
dose: 37.5 mg/kg/injection, schedule: Q04DX003 (ip), vehicle: saline with Tween-80
  T/C: 103 % of control
dose: 75.0 mg/kg/injection, schedule: Q04DX003 (ip), vehicle: saline with Tween-80
  T/C: 108 % of control
dose: 150.0 mg/kg/injection, schedule: Q04DX003 (ip), vehicle: saline with Tween-80
  T/C: 107 % of control

## CCCS/C(N)=N/N=C/c1ccc([N+](=O)[O-])o1
dose: 50.0 mg/kg/injection, schedule: Q01DX001 (ip), vehicle: other
  T/C: 96 % of control
dose: 100.0 mg/kg/injection, schedule: Q01DX001 (ip), vehicle: other
  T/C: 94 % of control

## Cc1c(C)c(C)c(CNNC(=S)Nc2cccc(Cl)c2)c(C)c1C
dose: 100.0 mg/kg/injection, schedule: Q01DX009 (ip), vehicle: Klucel (hydroxypropylcellulose) (HPC)
  T/C: 95 % of control
dose: 200.0 mg/kg/injection, schedule: Q01DX009 (ip), vehicle: Klucel (hydroxypropylcellulose) (HPC)
  T/C: 91 % of control
dose: 400.0 mg/kg/injection, schedule: Q01DX009 (ip), vehicle: Klucel (hydroxypropylcellulose) (HPC)
  T/C: 91 % of control

## COc1cc(N(CCCl)CCCl)ccc1C=Nc1ccccc1C(=O)O
dose: 2.3 mg/kg/injection, schedule: Q01DX015 (ip), vehicle: carboxymethylcellulose (CMC)
  T/C: 117 % of control
dose: 5.0 mg/kg/injection, schedule: Q01DX001 (ip), vehicle: carboxymethylcellulose (CMC)
  T/C: 121 % of control
dose: 5.3 mg/kg/injection, schedule: Q01DX015 (ip), vehicle: carboxymethylcellulose (CMC)
  T/C: 122 % of control
dose: 10.0 mg/kg/injection, schedule: Q01DX015 (ip), vehicle: carboxymethylcellulose (CMC)
  T/C: 154 % of control
dose: 15.0 mg/kg/injection, schedule: Q01DX015 (ip), vehicle: carboxymethylcellulose (CMC)
  T/C: 119 % of control
dose: 16.0 mg/kg/injection, schedule: Q01DX015 (ip), vehicle: carboxymethylcellulose (CMC)
  T/C: 123 % of control
dose: 20.0 mg/kg/injection, schedule: Q01DX001 (ip), vehicle: carboxymethylcellulose (CMC)
  T/C: 162 % of control
dose: 22.0 mg/kg/injection, schedule: Q01DX001 (ip), vehicle: carboxymethylcellulose (CMC)
  T/C: 150 % of control
dose: 33.0 mg/kg/injection, schedule: Q01DX001 (ip), vehicle: carboxymethylcellulose (CMC)
  T/C: 164 % of control
dose: 50.0 mg/kg/injection, schedule: Q01DX001 (ip), vehicle: carboxymethylcellulose (CMC)
  T/C: 100 % of control

## Cc1cccc(NC(=O)c2cccc([N+](=O)[O-])c2C(=O)O)c1C
dose: 100.0 mg/kg/injection, schedule: Q04DX002 (ip), vehicle: Klucel (hydroxypropylcellulose) (HPC)
  T/C: 103 % of control
dose: 200.0 mg/kg/injection, schedule: Q04DX002 (ip), vehicle: Klucel (hydroxypropylcellulose) (HPC)
  T/C: 103 % of control
dose: 400.0 mg/kg/injection, schedule: Q04DX002 (ip), vehicle: Klucel (hydroxypropylcellulose) (HPC)
  T/C: 103 % of control

## CC1(C)CC1(F)Cl (configuration not stated)
dose: 100.0 mg/kg/injection, schedule: Q01DX001 (ip), vehicle: carboxymethylcellulose (CMC)
  T/C: 103 % of control
dose: 200.0 mg/kg/injection, schedule: Q01DX001 (ip), vehicle: carboxymethylcellulose (CMC)
  T/C: 97 % of control
dose: 400.0 mg/kg/injection, schedule: Q01DX001 (ip), vehicle: carboxymethylcellulose (CMC)
  T/C: 101 % of control

## CC(C)(c1ccccc1)[N+](C)(C)C
dose: 4.0 mg/kg/injection, schedule: Q01DX Z (ip), vehicle: saline
  T/C: 93 % of control
dose: 6.25 mg/kg/injection, schedule: Q01DX009 (ip), vehicle: saline
  T/C: 97 % of control
dose: 6.25 mg/kg/injection, schedule: Q04DX003 (ip), vehicle: saline
  T/C: 104 % of control
dose: 8.0 mg/kg/injection, schedule: Q01DX Z (ip), vehicle: saline
  T/C: 96 % of control
dose: 12.5 mg/kg/injection, schedule: Q01DX009 (ip), vehicle: saline
  T/C: 91 % of control
dose: 12.5 mg/kg/injection, schedule: Q04DX003 (ip), vehicle: saline
  T/C: 103 % of control
dose: 16.0 mg/kg/injection, schedule: Q01DX Z (ip), vehicle: saline
  T/C: 92 % of control
[11]
  T/C: 92 % of control
dose: 25.0 mg/kg/injection, schedule: Q04DX003 (ip), vehicle: saline
  T/C: 91 % of control

## O=[N+]([O-])c1cc(Cl)ccc1S(=O)(=O)/C=C/c1ccccc1
[6]
  T/C: 104 % of control
dose: 100.0 mg/kg/injection, schedule: Q01DX009 (ip), vehicle: saline
  T/C: 94 % of control
[7]
  T/C: 104 % of control
dose: 200.0 mg/kg/injection, schedule: Q01DX009 (ip), vehicle: saline
  T/C: 96 % of control
[8]
  T/C: 100 % of control
dose: 400.0 mg/kg/injection, schedule: Q01DX009 (ip), vehicle: saline
  T/C: 91 % of control

## COc1ccc(C(=O)c2no[n+]([O-])c2C(=O)c2ccc(OC)cc2)cc1
[9]
  T/C: 90 % of control
[10]
  T/C: 94 % of control

## CCCCCCCNC(C)=O
dose: 25.0 mg/kg/injection, schedule: Q01DX001 (ip), vehicle: saline
  T/C: 99 % of control
[11]
  T/C: 106 % of control
dose: 50.0 mg/kg/injection, schedule: Q01DX001 (ip), vehicle: saline
  T/C: 116 % of control
dose: 50.0 mg/kg/injection, schedule: Q01DX009 (ip), vehicle: saline
  T/C: 95 % of control
[1]
  T/C: 92 % of control
[6]
  T/C: 99 % of control
